Experimental data published in patent US11897886B2, “Pyrazolo[4,3-d]pyrimidines as antitumor agents” (Duquesne University of the Holy Spirit, priority 2018, dated 2024).
Where two headings read alike, the source gives them in different places.

Assays:
NCI/ADR-RES = test: Compound activity in a P-gp overexpressing cell line NCI/ADR-RES; assay type: cell-based; conditions: for IC50: P-gp overexpressing cell line
OVCAR-8 = test: Compound activity in OVCAR-8 cell line; assay type: cell-based; conditions: for IC50: OVCAR-8, read-out: OVCAR-8 IC50 (nM) ± SD
MCF-7 WT = MCF-7 WT cell activity; assay type: cell-based; conditions: Homo sapiens, MCF7
MCF-7-TUBB3 β3-tubulin = test: MCF-7-TUBB3 (β3-tubulin) cell activity; assay type: cell-based
MCF-7/TAX Pgp = test: MCF-7/TAX (Pgp) cell activity; assay type: cell-based; conditions: for EC50: Homo sapiens, MCF7
MIA PaCa-2 = MIA PaCa-2 cell line activity; assay type: cell-based; conditions: Table 2, read-out: MIA PaCa-2 (nM ± SD)
tubulin = tubulin (Bos taurus, UniProt P81947+Q6B856); test: Inhibition of [3H]colchicine binding to tubulin
[1] = Homo sapiens, NCI/ADR-RES, Table 1, read-out: NCl/ADR-RES IC50 (nM) ± SD
[2] = Homo sapiens, NCI/ADR-RES, Table 2, read-out: NCI/ADR-RES IC50 (nM) ± SD

Sequence of tubulin (Q6B856 whole entry): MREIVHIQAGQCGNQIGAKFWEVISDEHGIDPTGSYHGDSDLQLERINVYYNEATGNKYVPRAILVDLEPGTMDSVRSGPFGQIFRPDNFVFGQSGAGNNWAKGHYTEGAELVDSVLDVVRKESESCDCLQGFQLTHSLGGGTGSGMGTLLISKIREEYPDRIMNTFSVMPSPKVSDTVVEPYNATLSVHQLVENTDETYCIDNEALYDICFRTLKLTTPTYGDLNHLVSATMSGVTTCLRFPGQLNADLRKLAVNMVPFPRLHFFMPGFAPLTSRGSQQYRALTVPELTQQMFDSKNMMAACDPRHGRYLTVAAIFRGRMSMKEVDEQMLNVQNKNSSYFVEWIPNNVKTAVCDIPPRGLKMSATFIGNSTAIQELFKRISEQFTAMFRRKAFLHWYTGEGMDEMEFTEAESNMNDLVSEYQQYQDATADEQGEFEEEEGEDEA
Sequence of tubulin (P81947 whole entry): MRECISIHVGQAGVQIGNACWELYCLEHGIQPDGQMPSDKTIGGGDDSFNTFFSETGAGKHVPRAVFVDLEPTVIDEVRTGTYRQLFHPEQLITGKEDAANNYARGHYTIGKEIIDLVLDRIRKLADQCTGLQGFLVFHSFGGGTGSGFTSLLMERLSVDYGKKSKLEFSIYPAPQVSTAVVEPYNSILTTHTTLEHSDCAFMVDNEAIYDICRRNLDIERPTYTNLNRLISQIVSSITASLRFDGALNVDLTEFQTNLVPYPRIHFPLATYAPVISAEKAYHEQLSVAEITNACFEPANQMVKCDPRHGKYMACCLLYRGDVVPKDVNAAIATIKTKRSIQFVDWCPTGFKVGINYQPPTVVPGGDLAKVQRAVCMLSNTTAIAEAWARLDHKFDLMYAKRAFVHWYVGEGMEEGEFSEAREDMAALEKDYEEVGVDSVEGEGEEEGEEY

CN(c1ccc(OC(F)(F)F)cc1)c1nc(Cl)nc2cnn(C)c12 [Compound 10, 5-chloro-N,1-dimethyl-N-(4-(trifluoromethoxy)phenyl)-1H-pyrazolo[4,3-d]pyrimidin-7-amine]
IC50 (NCI/ADR-RES; [1]): 730 ± 100 nM
IC50 (NCI/ADR-RES; [2]): 730 ± 100 nM
IC50 (OVCAR-8; Homo sapiens, Table 1): 880 ± 40 nM

CC(=O)O[C@H]1C(=O)[C@@]2(C)[C@H]([C@H](OC(=O)c3ccccc3)[C@]3(O)C[C@H](OC(=O)[C@H](O)[C@@H](NC(=O)c4ccccc4)c4ccccc4)C(C)=C1C3(C)C)[C@]1(OC(C)=O)CO[C@@H]1C[C@@H]2O [Paclitaxel, reference compound]
EC50 (MCF-7 WT): 194 nM
EC50 (MCF-7-TUBB3 β3-tubulin): 2070 nM
[…] β3-tubulin/WT (MCF-7-TUBB3 β3-tubulin; MCF-7-TUBB3 vs MCF-7 WT): 10.6
IC50 (NCI/ADR-RES; [1]): > 5000 nM
IC50 (NCI/ADR-RES; [2]): > 5000 nM
EC50 (MCF-7/TAX Pgp): 3220 nM
[…] Pgp/WT (MCF-7/TAX Pgp; MCF-7/TAX vs MCF-7 WT): 16.6
IC50 (OVCAR-8; Homo sapiens, Table 1): 7 ± 2 nM

CC(C)Oc1ccc(N(C)c2nc(Cl)nc3cnn(C)c23)cc1 [Compound 9, 5-chloro-N-(4-isopropoxyphenyl)-N,1-dimethyl-1H-pyrazolo[4,3-d]pyrimidin-7-amine]
IC50 (NCI/ADR-RES; [1]): 44 ± 8 nM
IC50 (NCI/ADR-RES; [2]): 44 ± 8 nM
IC50 (OVCAR-8; Homo sapiens, Table 1): 49 ± 10 nM

CCOc1ccc(N(C)c2nc(Cl)nc3cnn(C)c23)cc1 [Compound 8, 5-chloro-N-(4-ethoxyphenyl)-N,1-dimethyl-1H-pyrazolo[4,3-d]pyrimidin-7-amine]
EC50 (MCF-7 WT): 7.7 ± 0.7 nM
EC50 (MCF-7-TUBB3 β3-tubulin): 9.7 ± 1 nM
RESISTANCE RATIO β3-tubulin/WT (MCF-7-TUBB3 β3-tubulin; MCF-7-TUBB3 vs MCF-7 WT): 1.3
IC50 (NCI/ADR-RES; [1]): 4 ± 1 nM
IC50 (NCI/ADR-RES; [2]): 4 ± 1 nM
EC50 (MCF-7/TAX Pgp): 31.3 ± 3.5 nM
RESISTANCE RATIO Pgp/WT (MCF-7/TAX Pgp; MCF-7/TAX vs MCF-7 WT): 4.0
IC50 (OVCAR-8; Homo sapiens, Table 1): 2 ± 1 nM
fold improvement of OVCAR-8 cell line activity (OVCAR-8; over compound 4): around 4 fold

COc1ccc(N(C)c2nc(Cl)nc3cnn(C)c23)cc1 [Compound 4, 5-chloro-N-(4-methoxyphenyl)-N,1-dimethyl-1H-pyrazolo[4,3-d]pyrimidin-7-amine]
EC50 (MCF-7 WT): 2 ± 0.3 nM
IC50 (MIA PaCa-2; Homo sapiens): 22.7 ± 1.13 nM
EC50 (MCF-7-TUBB3 β3-tubulin): 3.3 ± 0.4 nM
RESISTANCE RATIO β3-tubulin/WT (MCF-7-TUBB3 β3-tubulin; MCF-7-TUBB3 vs MCF-7 WT): 1.1
IC50 (NCI/ADR-RES; [1]): 5 nM
IC50 (NCI/ADR-RES; [2]): 5 nM
EC50 (MCF-7/TAX Pgp): 15.1 ± 2 nM
RESISTANCE RATIO Pgp/WT (MCF-7/TAX Pgp; MCF-7/TAX vs MCF-7 WT): 3.8
IC50 (OVCAR-8; Homo sapiens, Table 1): 9 ± 0.7 nM

COc1cccc2cc(N(C)c3nc(Cl)nc4cnn(C)c34)ccc12 [Compound 7, 5-chloro-N-(5-methoxynaphthalen-2-yl)-N,1-dimethyl-1H-pyrazolo[4,3-d]pyrimidin-7-amine]
EC50 (MCF-7 WT): 35.2 ± 4.7 nM
EC50 (MCF-7-TUBB3 β3-tubulin): 16.8 ± 1.5 nM
RESISTANCE RATIO β3-tubulin/WT (MCF-7-TUBB3 β3-tubulin; MCF-7-TUBB3 vs MCF-7 WT): 0.5
IC50 (NCI/ADR-RES; [1]): 11 ± 0.7 nM
IC50 (NCI/ADR-RES; [2]): 11 ± 0.7 nM
EC50 (MCF-7/TAX Pgp): 43 ± 7.2 nM
RESISTANCE RATIO Pgp/WT (MCF-7/TAX Pgp; MCF-7/TAX vs MCF-7 WT): 1.2
IC50 (OVCAR-8; Homo sapiens, Table 1): 14 ± 3 nM

COc1ccc(/C=C\c2cc(OC)c(OC)c(OC)c2)cc1O [CS-A4, Combretastatin A-4, reference compound]
IC50 (NCI/ADR-RES; Table 1, read-out: NCl/ADR-RES IC50 (nM) ± SD): 2.3 ± 0.4 nM
IC50 (NCI/ADR-RES; Table 2, read-out: NCI/ADR-RES IC50 (nM) ± SD): 2.3 ± 0.4 nM
IC50 (OVCAR-8; Table 1): 3.5 ± 0.7 nM
IC50 (OVCAR-8; Table 2): 3.5 ± 0.7 nM

CSc1ccc(N(C)c2nc(Cl)nc3cnn(C)c23)cc1 [Compound 5, 5-chloro-N,1-dimethyl-N-(4-(methylthio)phenyl)-1H-pyrazolo[4,3-d]pyrimidin-7-amine]
IC50 (MIA PaCa-2; Homo sapiens): 20.9 ± 0.651 nM
IC50 (NCI/ADR-RES; [1]): 17 ± 3 nM
IC50 (NCI/ADR-RES; [2]): 17 ± 3 nM
IC50 (OVCAR-8; Homo sapiens, Table 1): 31 ± 2 nM

COc1ccc2c(c1)CCCN2c1nc(Cl)nc2cnn(C)c12 [Compound 6, 1-(5-chloro-1-methyl-1H-pyrazolo[4,3-d]pyrimidin-7-yl)-6-methoxy-1,2,3,4-tetrahydroquinoline]
IC50 (MIA PaCa-2; Homo sapiens): 48 ± 2.77 nM
IC50 (NCI/ADR-RES; [1]): 8 ± 0.7 nM
IC50 (NCI/ADR-RES; [2]): 8 ± 0.7 nM
IC50 (OVCAR-8; Homo sapiens, Table 1): 17 ± 2 nM

Nc1nc2[nH]cc(CCc3ccc(C(=O)N[C@@H](CCC(=O)O)C(=O)O)cc3)c2c(=O)[nH]1 [PMX, reference compound]
IC50 (MIA PaCa-2): 16.1 ± 1.4 nM

COc1ccc(Nc2nc(Cl)nc3cnn(C)c23)cc1 [Compound 11, 5-chloro-N-(4-methoxyphenyl)-1-methyl-1H-pyrazolo[4,3-d]pyrimidin-7-amine]
colchicine inhibition (tubulin): did not show colchicine inhibition
activity in NCI/ADR-RES cell line (NCI/ADR-RES): not active
IC50 (NCI/ADR-RES; [1]): > 5000 nM
activity in OVCAR-8 cell line (OVCAR-8): not active
IC50 (OVCAR-8; Homo sapiens, Table 1): > 5000 nM

COc1ccc(N(C)c2nc(Cl)nc3cnn(C)c23)cc1F [Compound 6d7, 5-chloro-N-(3-fluoro-4-methoxyphenyl)-N,1-dimethyl-1H-pyrazolo[4,3-d]pyrimidin-7-amine]
EC50 (MCF-7 WT): 1.7 ± 0.2 nM
EC50 (MCF-7-TUBB3 β3-tubulin): 2.6 ± 0.4 nM
RESISTANCE RATIO β3-tubulin/WT (MCF-7-TUBB3 β3-tubulin; MCF-7-TUBB3 vs MCF-7 WT): 1.6
IC50 (NCI/ADR-RES; [2]): 7 ± 3 nM
EC50 (MCF-7/TAX Pgp): 8.1 ± 0.2 nM
RESISTANCE RATIO Pgp/WT (MCF-7/TAX Pgp; MCF-7/TAX vs MCF-7 WT): 4.8
IC50 (OVCAR-8; Homo sapiens, Table 2): 9 ± 1 nM

Nc1ccn([C@@H]2O[C@H](CO)[C@@H](O)C2(F)F)c(=O)n1 [GEM, reference compound]
IC50 (MIA PaCa-2): 297 nM
